Where “and” joins values, the source holds several entries; their conditions need not be identical. Equal entries are not always repeated. Where two headings read alike, the source gives them in different places.
Key:
[1] = biological target: T1, wild type B. subtilis glutamine PRPP amidotransferase (Bacillus subtilis, UniProt P00497); test: Nucleotide binding by equilibrium dialysis; conditions: for Kd: apparent Kd, half-saturation of A and C sites
T1 construct: Enzymes of the B. subtilis class are synthesized with an NH2 terminal propeptide and an Fe—S center; made in house; host or cells: E. coli strain TX158 (purF) with plasmid pGZ1
T1 sequence (P00497 12-476): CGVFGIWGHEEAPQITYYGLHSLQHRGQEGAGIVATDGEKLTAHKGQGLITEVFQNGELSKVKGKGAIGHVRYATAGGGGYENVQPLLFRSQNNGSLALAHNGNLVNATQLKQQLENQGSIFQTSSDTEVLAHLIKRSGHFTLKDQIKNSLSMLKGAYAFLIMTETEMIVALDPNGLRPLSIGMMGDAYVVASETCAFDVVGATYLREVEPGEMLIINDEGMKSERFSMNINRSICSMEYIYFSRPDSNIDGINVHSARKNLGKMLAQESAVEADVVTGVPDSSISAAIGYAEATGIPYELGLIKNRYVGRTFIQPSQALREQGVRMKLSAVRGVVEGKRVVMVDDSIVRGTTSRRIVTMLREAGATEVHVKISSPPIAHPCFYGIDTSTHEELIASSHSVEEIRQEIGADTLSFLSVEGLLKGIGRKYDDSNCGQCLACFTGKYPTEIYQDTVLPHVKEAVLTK
Method: (§1) Nucleotide binding was determined by equilibrium dialysis using chambers of 150 μL that were separated by a 12000-14000 molecular weight dialysis membrane. […] In some experiments, the chambers with radioactive nucleotide also contained a fixed concentration of a second non-radioactive nucleotide. The other chamber contained 50 mM Tris-HCl (pH 7.5) and 50-200 μM enzyme, calculated as the subunit concentration, in a volume of 100 μL. Dialysis was carried out for 20 h at room temperature (˜22° C.) in a rotating apparatus. Samples of 80 μL were retrieved from each chamber and were counted for radioactivity. All experiments were performed in an anaerobic glovebox. […] Equilibrium binding data were fit to the Hill equation (Y=C [free ligand]^n/[…]+[free ligand]^n, where Y is the fractional saturation, C is the binding capacity, Kd is the dissociation constant, and n is the Hill coefficient) by nonlinear regression using Ultrafit software (Biosoft, Cambridge, UK).

[2] = biological target: T1, wild type B. subtilis glutamine PRPP amidotransferase; test: Inhibition of enzyme activity by nucleotides (glutamate formation assay), wild type; assay type: biochemical; conditions: wild type; for Hill coefficient determined from inhibition data: PRPP present
Method: (§2) Enzyme activity was assayed by measuring the initial rate of formation of the product glutamate. […] Incubation was at 37° C. for 6 min. […] Reactions were quenched in a boiling water bath for 2 min, and glutamate was determined by the glutamate dehydrogenase method.
(§3) Inhibition by nucleotides was determined by the standard assay to which varied concentrations of nucleotide were added. Synergistic inhibition was determined by varying the concentration of one nucleotide in the presence of a fixed concentration of a second nucleotide. Relative activity (see FIG. 1) refers to the enzyme activity at a given concentration of the varied nucleotide relative to that in the absence of the varied nucleotide. I0.5 values were calculated from plots of relative activity versus varied nucleotide concentration.

[3] = biological target: T2, glutamine PRPP amidotransferase S283A mutant enzyme (Bacillus subtilis, UniProt P00497, S294A); assay type: biochemical; conditions: for higher concentration required for 50% inhibition compared to wild type: ADP-GMP mixture
T2 construct: Enzymes of the B. subtilis class are synthesized with an NH2 terminal propeptide and an Fe—S center; made in house; host or cells: E. coli strain TX158 (purF) with plasmid pBsF/S283A
T2 sequence (P00497 12-476 S294A): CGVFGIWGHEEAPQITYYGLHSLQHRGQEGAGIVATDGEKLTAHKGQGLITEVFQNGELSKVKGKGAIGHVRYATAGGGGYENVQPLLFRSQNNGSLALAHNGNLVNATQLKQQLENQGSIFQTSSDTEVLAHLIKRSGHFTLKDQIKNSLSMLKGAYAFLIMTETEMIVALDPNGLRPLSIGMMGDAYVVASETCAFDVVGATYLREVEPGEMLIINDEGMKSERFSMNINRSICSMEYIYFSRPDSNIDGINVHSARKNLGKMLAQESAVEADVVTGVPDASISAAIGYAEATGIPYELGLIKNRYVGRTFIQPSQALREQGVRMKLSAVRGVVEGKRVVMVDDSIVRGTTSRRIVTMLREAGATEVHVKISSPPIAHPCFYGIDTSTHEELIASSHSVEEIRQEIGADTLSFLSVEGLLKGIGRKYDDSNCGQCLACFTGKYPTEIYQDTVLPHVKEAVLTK
Method: as §2, §3
(§4) These modified forms of amidotransferase were analyzed to determine the impact of the mutations on end-product inhibition and enzymatic activity. Inhibition by nucleotides was determined as described in Example 1.

[4] = biological target: T3, glutamine PRPP amidotransferase S347A mutant enzyme (Bacillus subtilis, UniProt P00497, S358A); assay type: biochemical
T3 construct: Enzymes of the B. subtilis class are synthesized with an NH2 terminal propeptide and an Fe—S center; made in house; host or cells: E. coli strain TX158 (purF) with plasmid pBsF/S347A
T3 sequence (P00497 12-476 S358A): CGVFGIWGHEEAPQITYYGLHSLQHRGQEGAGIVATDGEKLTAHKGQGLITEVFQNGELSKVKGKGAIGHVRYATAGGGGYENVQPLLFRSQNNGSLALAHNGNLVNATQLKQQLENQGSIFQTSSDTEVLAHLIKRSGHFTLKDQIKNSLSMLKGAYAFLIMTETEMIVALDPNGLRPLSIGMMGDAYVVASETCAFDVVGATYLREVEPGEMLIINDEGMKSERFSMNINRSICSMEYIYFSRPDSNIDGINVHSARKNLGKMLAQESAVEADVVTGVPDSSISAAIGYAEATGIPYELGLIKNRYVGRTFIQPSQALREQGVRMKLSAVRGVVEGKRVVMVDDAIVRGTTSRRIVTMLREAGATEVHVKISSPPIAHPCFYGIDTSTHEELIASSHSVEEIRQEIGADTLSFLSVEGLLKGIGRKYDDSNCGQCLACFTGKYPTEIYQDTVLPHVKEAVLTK
Method: as §2, §3, §4

[5] = biological target: T4, Bacillus subtilis glutamine PRPP amidotransferase, wild type (Bacillus subtilis, UniProt P00497); test: Nucleotide binding by equilibrium dialysis, wild type enzyme; conditions: for Capacity: at saturation
T4 construct: Enzymes of the B. subtilis class are synthesized with an NH2 terminal propeptide; made in house; host or cells: E. coli strain TX158 (purF), plasmid pGZ1
Method: (§5) Plasmid pGZ1 was used for production of the wild type enzyme. […] For construction of mutants, the EcoRI-HindIII purF^+ DNA was transferred to pUC118 to yield pBsF. […] The resulting plasmids were named pBsF/S283A, pBsF/K305Q, pBsF/R307Q, and pBsF/S347A.
For enzyme purification, all buffers were sparged with nitrogen gas prior to use in order to minimize oxidation of the enzyme's Fe-S cluster. All steps were carried out at 4° C. Cells were resuspended in 4 mL/gram of buffer A [50 mM Tris-HCl (pH 8.0), 10 mM MgCl2, 0.1 mM EDTA, 5 mM DTT, and 2 mM AMP] containing 1 mM PMSF, and were disrupted by two passes through a French Press. The cell extract was obtained by centrifugation for 1 h at 27,000 g. Protamine sulfate (5 mg per gram of cells) was added to the extract to precipitate DNA. […] After centrifugation, enzyme in the brown pellet was recovered by extraction twice with 30% saturated ammonium sulfate. A small colorless pellet that remained was discarded, and the dark brown enzyme solution in buffer A containing residual ammonium sulfate was stored as beads in liquid nitrogen. […] For assays of activity, the enzyme was diluted 1:1000 in […] Tris-HCl (pH 8.0) containing 1 mg/mL bovine serum albumin. For measurements of ligand binding by equilibrium dialysis and for crystallization experiments, the enzyme was dialyzed anaerobically against buffer B [50 mM Tris-HCl (pH 8.0), 0.1 mM EDTA, and 5 mM DTT] prior to being used.
as §1

[6] = biological target: T4, Bacillus subtilis glutamine PRPP amidotransferase, wild type; test: Inhibition of enzyme activity (glutamate formation) by nucleotides, wild type; assay type: biochemical; conditions: for Hill coefficient from inhibition data: determined from inhibition data, PRPP present
Method: as §5, §2, §3

[7] = no fixed nucleotide, at saturation ± standard error
[8] = no fixed nucleotide, pH 7.5, ~22° C., half-saturation of the two sites, read-out: Kd (apparent)
[9] = fixed GMP 1.0 mM, read-out: I0.5
[10] = fixed ADP 0.5 mM, read-out: I0.5
[11] = no fixed nucleotide, 2.5 mM PRPP, pH 8.0, 37° C., read-out: I0.5

Nc1ncnc2c1ncn2[C@@H]1O[C@H](COP(=O)(O)OP(=O)(O)O)[C@@H](O)[C@H]1O [ADP]
synergistic binding (decrease of Kd by second nucleotide) ([1]; ADP-GMP pair): 20 fold | equiv bound ([1]; GMP fixed at either 0.25 or 1.0 mM): approximately 1 equiv | Capacity ([1]; fixed GMP 0.25 mM): 0.82 ± 0.11 equivalents bound per subunit | Hill coefficient ([1]; fixed GMP 0.25 mM): 1.8 ± 0.8 | Capacity ([1]; fixed GMP 1.0 mM): 0.94 ± 0.14 equivalents bound per subunit | Hill coefficient ([1]; fixed GMP 1.0 mM): 1.7 ± 0.9 | Capacity [1, 7]: 1.83 equivalents bound per subunit and 1.83 ± 0.26 equivalents bound per subunit | Hill coefficient ([1]; no fixed nucleotide, binding): 1.8 and 1.8 ± 0.65 | Hill coefficient determined from inhibition data [2]: 3.8 | syn. ([2]; fixed AMP 0.1 mM): 1.9 | syn. (decreased I0.5 due to a second nucleotide) ([2]; fixed GMP 0.25 mM): 20 | syn. ([2]; fixed GMP 0.50 mM): 29.0 | syn. ([2]; fixed GMP 1.0 mM): 59 | syn. ([2]; fixed GMP 2.0 mM): 118.0 | syn. ([2]; fixed GMP 4.0 mM): 188.0 | concentration required for 50% inhibition relative to that of AMP ([2]; single nucleotide): 5 fold | higher concentration required for 50% inhibition compared to wild type [3]: 30 fold | syn. ([3]; fixed GMP 0.50 mM): 5.0 | syn. ([4]; fixed GMP 1.4 mM (footnote c)): 37.0 | decrease of Kd in the presence of GMP ([5]; GMP present): 20 fold | Kd ([5]; Kd, GMP fixed at either 0.25 or 1.0 mM): ~10 µM | Capacity ([5]; fixed GMP 0.25 mM): 0.82 ± 0.11 Equivalents bound per subunit | Kd ([5]; fixed GMP 0.25 mM, read-out: Kd): 10.4 ± 2.7 µM | Capacity ([5]; fixed GMP 1.0 mM): 0.94 ± 0.14 Equivalents bound per subunit | Kd ([5]; fixed GMP 1.0 mM, read-out: Kd): 11 µM | Hill coefficient ([5]; no fixed nucleotide): 1.8 | Capacity ([5]; no fixed nucleotide): 1.83 Equivalents bound per subunit and 1.83 ± 0.26 Equivalents bound per subunit | Kd [5, 8]: 214 µM and ~214 µM | IC50 ([6]; I0.5, fixed GMP 0.25 mM): 240 µM | IC50 ([6]; I0.5, no fixed nucleotide, 2.5 mM PRPP, pH 8.0, 37° C.): 4700 µM | Hill coefficient from inhibition data [6]: 3.8 | syn. (decreased I0.5 due to a second nucleotide) ([6]; fixed AMP 0.1 mM): 1.9 fold | syn. (decreased I0.5 due to a second nucleotide) ([6]; fixed GMP 0.25 mM): 20 fold and 20.0 fold | syn. (decreased I0.5 due to a second nucleotide) ([6]; fixed GMP 0.50 mM): 29.0 fold | IC50 ([6]; fixed GMP 0.50 mM, read-out: I0.5): 160 µM | syn. (decreased I0.5 due to a second nucleotide) ([6]; fixed GMP 1.0 mM): 59 fold and 59.0 fold | IC50 [6, 9]: 80 µM | syn. (decreased I0.5 due to a second nucleotide) ([6]; fixed GMP 2.0 mM): 118.0 fold | IC50 ([6]; fixed GMP 2.0 mM, read-out: I0.5): 40 µM | syn. (decreased I0.5 due to a second nucleotide) ([6]; fixed GMP 4.0 mM): 188.0 fold | concentration for 50% inhibition relative to AMP ([6]; no fixed nucleotide): 5 fold

Nc1ncnc2c1ncn2[C@@H]1O[C@H](COP(=O)(O)O)[C@@H](O)[C@H]1O [AMP]
Kd ([1]; Kd, no fixed nucleotide): 214 µM and > 500 µM | increase in binding affinity by second nucleotide ([1]; by GMP or ADP): 2-3 fold | Hill coefficient ([1]; fixed ADP 0.25 mM): 2.3 ± 1.2 | Capacity ([1]; fixed ADP 0.5 mM): approximately 0.4 equivalents bound per subunit | Hill coefficient ([1]; fixed GMP 1.0 mM): 2.1 ± 0.80 | Capacity [1, 7]: 1.57 equivalents bound per subunit and 1.57 ± 0.27 equivalents bound per subunit | Hill coefficient ([1]; no fixed nucleotide, binding): 3.4 and 3.4 ± 1.8 | Hill coefficient determined from inhibition data [2]: 3.3-3.8 | syn. ([2]; fixed ADP 0.5 mM): 1.4 | syn. ([2]; fixed GMP 1.0 mM): 1.0 | syn. ([4]; fixed ADP 0.8 mM (footnote c)): 2.3 | syn. ([4]; fixed GMP 1.4 mM (footnote c)): 0.8 | Capacity ([5]; fixed ADP 0.25 mM): 0.94 ± 0.16 Equivalents bound per subunit | Kd ([5]; fixed ADP 0.25 mM, read-out: Kd): 77 µM | Capacity ([5]; fixed ADP 0.5 mM): approximately 0.4 Equivalents bound per subunit | Capacity ([5]; fixed GMP 1.0 mM): 1.05 ± 0.21 Equivalents bound per subunit | Kd ([5]; fixed GMP 1.0 mM, read-out: Kd): 103 µM | increase of binding affinity by GMP or ADP ([5]; fixed GMP or ADP): 2-3 fold | Hill coefficient ([5]; no fixed nucleotide): 3.4 | Capacity ([5]; no fixed nucleotide): 1.57 Equivalents bound per subunit and 1.57 ± 0.27 Equivalents bound per subunit | Kd [5, 8]: 240 µM and 239 µM | Hill coefficient from inhibition data [6]: 3.3-3.8 | syn. (decreased I0.5 due to a second nucleotide) ([6]; fixed ADP 0.5 mM): 1.4 fold | IC50 [6, 10]: 640 µM | syn. (decreased I0.5 due to a second nucleotide) ([6]; fixed GMP 1.0 mM): 1.0 fold | IC50 [6, 9]: 940 µM | IC50 [6, 11]: 900 µM

Nc1nc2c(ncn2[C@@H]2O[C@H](COP(=O)(O)O)[C@@H](O)[C@H]2O)c(=O)[nH]1 [GMP]
increased C site binding affinity relative to IMP and AMP ([1]; ADP bound to the A site): 3 fold | Capacity ([1]; fixed ADP 0.5 mM): 1 equivalents bound per subunit and 0.98 ± 0.10 equivalents bound per subunit | Hill coefficient ([1]; fixed ADP 0.5 mM): 2.1 ± 1.0 | Kd of GMP for the free enzyme, estimated assuming 20-fold synergism ([1]; no fixed nucleotide): approximately 500 μM | Kd ([1]; no fixed nucleotide): too weak to detect | syn. ([2]; fixed ADP 0.5 mM): 63 | syn. ([2]; fixed AMP 0.1 mM): 0.95 | concentration required for 50% inhibition relative to that of ADP ([2]; single nucleotide): 2 fold | concentration required for 50% inhibition relative to that of AMP ([2]; single nucleotide): 10 fold | higher concentration required for 50% inhibition compared to wild type [3]: 13 fold | syn. ([3]; fixed ADP 0.5 mM): 3.3 | syn. ([3]; fixed ADP 2.5 mM): 3.9 | I0.5 increase relative to wild type ([3]; single nucleotide): similar | syn. ([4]; fixed ADP 0.8 mM (footnote c)): 33.0 | I0.5 increase compared to wild type ([4]; inhibition at the C site, ADP fixed): 3 fold | increased binding affinity (C site) relative to AMP ([5]; ADP bound to the A site): 3 fold | increased binding affinity (C site) relative to IMP ([5]; ADP bound to the A site): 3 fold | Kd ([5]; Kd, fixed ADP 0.5 mM): 25 µM | Kd ([5]; Kd, no fixed nucleotide, not detected): > 500 µM | Kd for the free enzyme, estimated ([5]; assuming a synergism of 20-fold): approximately 500 μM | Capacity ([5]; fixed ADP 0.5 mM): 0.98 ± 0.10 Equivalents bound per subunit | Kd ([5]; no fixed nucleotide, binding too weak to detect, read-out: Kd): > 500 µM | syn. (decreased I0.5 due to a second nucleotide) ([6]; fixed ADP 0.5 mM): 63 fold and 63.0 fold | IC50 [6, 10]: 150 µM | syn. (decreased I0.5 due to a second nucleotide) ([6]; fixed AMP 0.1 mM): 0.95 fold | IC50 ([6]; fixed AMP 0.1 mM, read-out: I0.5): 9900 µM | concentration for 50% inhibition relative to ADP ([6]; no fixed nucleotide): 2 fold | concentration for 50% inhibition relative to AMP ([6]; no fixed nucleotide): 10 fold | IC50 [6, 11]: 9400 µM

Source: US6586216B2 (Purdue Research Foundation, priority 1997, dated 2003)
